Experimental data reported in patent US20260184691A1, “INHIBITORS AND DEGRADERS OF PIP4K PROTEIN” (Larkspur Biosciences, Inc., priority 2022, published 2026).

biological target: T1, Human PIP4K2C (Homo sapiens, UniProt Q8TBX8); test: Enzyme binding assay (KINOMEscan), active site-directed competition binding; conditions: 11-point dose response, duplicate, top concentration 5 micromolar; read-out: Pip4k2c Kd: IC50
T1 construct: purchased Eurofins DiscoverX 87-0007-1094
T1 sequence (Q8TBX8 1-421): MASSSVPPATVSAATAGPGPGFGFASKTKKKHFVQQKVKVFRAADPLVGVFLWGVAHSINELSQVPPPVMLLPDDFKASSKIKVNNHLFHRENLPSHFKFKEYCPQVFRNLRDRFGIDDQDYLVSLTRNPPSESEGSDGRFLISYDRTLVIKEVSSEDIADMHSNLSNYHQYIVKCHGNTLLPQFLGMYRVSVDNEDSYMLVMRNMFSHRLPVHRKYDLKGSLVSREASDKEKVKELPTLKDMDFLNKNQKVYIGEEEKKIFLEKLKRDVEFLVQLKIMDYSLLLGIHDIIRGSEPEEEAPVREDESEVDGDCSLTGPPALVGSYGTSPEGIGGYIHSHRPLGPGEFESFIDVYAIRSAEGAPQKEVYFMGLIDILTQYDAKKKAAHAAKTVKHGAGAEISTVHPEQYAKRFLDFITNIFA
Protocol: PIP4K2C binding constants disclosed herein were determined using the proprietary Human PIP4K2C binding assay (Catalog number 87-0007-1094, Eurofins DiscoverX, San Diego, CA). This assay measures active site-directed competition binding to an immobilized ligand (see https://doi.org/10.1038/nbt1068, herein incorporated by reference in its entirety). Experiments were conducted using an 11-point dose response curve, in duplicate, with a top starting concentration of 5 micromolar; the Levenberg-Marquardt algorithm was used to fit a Hill equation to dose-response data to calculate IC50 values (see Table 5).

Row | IC50 [nM] | SMILES
1 | < 500 | O=C1CCCN1c1cncc(Nc2ncc(Cl)c(N3CCC[C@@H](c4ccccn4)C3)n2)c1 (single isomer, unassigned) [Compound 124]
2 | < 500 | O=C1CCCN1c1cncc(Nc2ncc(Cl)c(N3CCC[C@H](c4ccccn4)C3)n2)c1 (single isomer, unassigned) [Compound 125]
3 | < 500 | O=C1CCCN1c1cncc(Nc2ncc(Cl)c(N3C(=O)CC[C@H]3c3ccccc3)n2)c1 [29, Enant A]
4 | 500 to 1000 | O=C1CCCN1c1cncc(Nc2ncc(Cl)c(N3C(=O)CC[C@@H]3c3ccccc3)n2)c1 [29, Enant B]
5 | < 500 | O=C1N(c2cncc(Nc3ncc(Cl)c(-c4cccc(-c5ccccc5)c4)n3)c2)CCC12CCNCC2 [Compound 1, 2-(5-((4-([1,1′-biphenyl]-3-yl)-5-chloropyrimidin-2-yl)amino)pyridin-3-yl)-2,8-diazaspiro[4.5]decan-1-one]
6 | < 500 | O=C1CCCN1c1cncc(Nc2ncc(Cl)c(-c3cccc(-c4ccc(Cl)c(Cl)c4)c3)n2)c1 [Compound 2, 1-(5-((5-chloro-4-(3′,4′-dichloro-[1,1′-biphenyl]-3-yl)pyrimidin-2-yl)amino)pyridin-3-yl)pyrrolidin-2-one]
7 | < 500 | Cc1ccc(-c2cccc(-c3nc(Nc4cncc(N5CCCC5=O)c4)ncc3Cl)c2)cc1 [Compound 3, 1-(5-((5-chloro-4-(4′-methyl-[1,1′-biphenyl]-3-yl)pyrimidin-2-yl)amino)pyridin-3-yl)pyrrolidin-2-one]
8 | < 500 | O=C1CCCN1c1cncc(Nc2ncc(Cl)c(-c3cccc(-c4ccc(Cl)cc4)c3)n2)c1 [Compound 4, 1-(5-((5-chloro-4-(4′-chloro-[1,1′-biphenyl]-3-yl)pyrimidin-2-yl)amino)pyridin-3-yl)pyrrolidin-2-one]
9 | < 500 | COc1ccc(-c2cccc(-c3nc(Nc4cncc(N5CCCC5=O)c4)ncc3Cl)c2)cc1 [Compound 5, 1-(5-((5-chloro-4-(4′-methoxy-[1,1′-biphenyl]-3-yl)pyrimidin-2-yl)amino)pyridin-3-yl)pyrrolidin-2-one]
10 | < 500 | O=C1CCCN1c1cncc(Nc2ncc(Cl)c(-c3ccc(Cl)c(-c4ccccc4)c3)n2)c1 [Compound 6, 1-(5-((5-chloro-4-(6-chloro-[1,1′-biphenyl]-3-yl)pyrimidin-2-yl)amino)pyridin-3-yl)pyrrolidin-2-one]
11 | < 500 | Cc1ccc(-c2nc(Nc3cncc(N4CCCC4=O)c3)ncc2Cl)cc1-c1ccccc1 [Compound 7, 1-(5-((5-chloro-4-(6-methyl-[1,1′-biphenyl]-3-yl)pyrimidin-2-yl)amino)pyridin-3-yl)pyrrolidin-2-one]
12 | < 500 | COc1ccc(-c2nc(Nc3cncc(N4CCCC4=O)c3)ncc2Cl)cc1-c1ccccc1 [Compound 8, 1-(5-((5-chloro-4-(6-methoxy-[1,1′-biphenyl]-3-yl)pyrimidin-2-yl)amino)pyridin-3-yl)pyrrolidin-2-one]
13 | < 500 | O=C1CCCN1c1cncc(Nc2ncc(Cl)c(-c3cccc(-c4ccccn4)c3)n2)c1 [Compound 9, 1-(5-((5-chloro-4-(3-(pyridin-2-yl)phenyl)pyrimidin-2-yl)amino)pyridin-3-yl)pyrrolidin-2-one]
14 | < 500 | Cc1ccc(-c2ccccc2)cc1-c1nc(Nc2cncc(N3CCCC3=O)c2)ncc1Cl [Compound 10, 1-(5-((5-chloro-4-(4-methyl-[1,1′-biphenyl]-3-yl)pyrimidin-2-yl)amino)pyridin-3-yl)pyrrolidin-2-one]
15 | < 500 | Cc1cc(-c2ccccc2)cc(-c2nc(Nc3cncc(N4CCCC4=O)c3)ncc2Cl)c1 [Compound 11, 1-(5-((5-chloro-4-(5-methyl-[1,1′-biphenyl]-3-yl)pyrimidin-2-yl)amino)pyridin-3-yl)pyrrolidin-2-one]
16 | < 500 | O=C1CCCN1c1cncc(Nc2ncc(Cl)c(-c3cccc(C4CC4)c3)n2)c1 [Compound 12, 1-(5-((5-chloro-4-(3-cyclopropylphenyl)pyrimidin-2-yl)amino)pyridin-3-yl)pyrrolidin-2-one]
17 | < 500 | O=C1CCCN1c1cncc(Nc2ncc(Cl)c(-c3ccc(C4CC4)cc3)n2)c1 [Compound 13, 1-(5-((5-chloro-4-(4-cyclopropylphenyl)pyrimidin-2-yl)amino)pyridin-3-yl)pyrrolidin-2-one]

Row | IC50 [nM] | SMILES
18 | < 500 | O=C1CCCN1c1cncc(Nc2ncc(Cl)c(-c3cccc(-c4ccccc4Cl)c3)n2)c1 [Compound 14, 1-(5-((5-chloro-4-(2′-chloro-[1,1′-biphenyl]-3-yl)pyrimidin-2-yl)amino)pyridin-3-yl)pyrrolidin-2-one]
19 | < 500 | Cc1ccccc1-c1cccc(-c2nc(Nc3cncc(N4CCCC4=O)c3)ncc2Cl)c1 [Compound 15, 1-(5-((5-chloro-4-(2′-methyl-[1,1′-biphenyl]-3-yl)pyrimidin-2-yl)amino)pyridin-3-yl)pyrrolidin-2-one]
20 | < 500 | O=C1CCCN1c1cncc(Nc2ncc(Cl)c(-c3cccc(-c4cccnc4)c3)n2)c1 [Compound 16, 1-(5-((5-chloro-4-(3-(pyridin-3-yl)phenyl)pyrimidin-2-yl)amino)pyridin-3-yl)pyrrolidin-2-one]
21 | < 500 | O=C1CCCN1c1cncc(Nc2ncc(Cl)c(-c3cccc(-c4cnccn4)c3)n2)c1 [Compound 17, 1-(5-((5-chloro-4-(3-(pyrazin-2-yl)phenyl)pyrimidin-2-yl)amino)pyridin-3-yl)pyrrolidin-2-one]
22 | < 500 | COc1cc(-c2ccccc2)cc(-c2nc(Nc3cncc(N4CCCC4=O)c3)ncc2Cl)c1 [Compound 18, 1-(5-((5-chloro-4-(5-methoxy-[1,1′-biphenyl]-3-yl)pyrimidin-2-yl)amino)pyridin-3-yl)pyrrolidin-2-one]
23 | < 500 | O=C1CCCN1c1cncc(Nc2ncc(Cl)c(-c3cccc(C4CCCCC4)c3)n2)c1 [Compound 19, 1-(5-((5-chloro-4-(3-cyclohexylphenyl)pyrimidin-2-yl)amino)pyridin-3-yl)pyrrolidin-2-one]
24 | < 500 | O=C1CCCN1c1cncc(Nc2ncc(Cl)c(-c3cc(-c4ccccc4)ccc3Cl)n2)c1 [Compound 20, 1-(5-((5-chloro-4-(4-chloro-[1,1′-biphenyl]-3-yl)pyrimidin-2-yl)amino)pyridin-3-yl)pyrrolidin-2-one]
25 | < 500 | COc1ccc(-c2ccccc2)cc1-c1nc(Nc2cncc(N3CCCC3=O)c2)ncc1Cl [Compound 21, 1-(5-((5-chloro-4-(4-methoxy-[1,1′-biphenyl]-3-yl)pyrimidin-2-yl)amino)pyridin-3-yl)pyrrolidin-2-one]
26 | < 500 | O=C1CCCN1c1cncc(Nc2ncc(Cl)c(-c3cc(Cl)cc(-c4ccccc4)c3)n2)c1 [Compound 22, 1-(5-((5-chloro-4-(5-chloro-[1,1′-biphenyl]-3-yl)pyrimidin-2-yl)amino)pyridin-3-yl)pyrrolidin-2-one]
27 | < 500 | O=C1CCCN1c1cncc(Nc2ncc(Cl)c(N3CCCC(c4ccccc4)C3)n2)c1 (stereo not shown) [Compound 24, 1-(5-((5-chloro-4-(3-phenylpiperidin-1-yl)pyrimidin-2-yl)amino)pyridin-3-yl)pyrrolidin-2-one]
28 | < 500 | O=C1CCCN1c1cncc(Nc2ncc(Cl)c(-c3cccc(C4CCNCC4)c3)n2)c1 [Compound 26, 1-(5-((5-chloro-4-(3-(piperidin-4-yl)phenyl)pyrimidin-2-yl)amino)pyridin-3-yl)pyrrolidin-2-one]
29 | < 500 | CN1CCC(c2cccc(-c3nc(Nc4cncc(N5CCCC5=O)c4)ncc3Cl)c2)CC1 [Compound 27, 1-(5-((5-chloro-4-(3-(1-methylpiperidin-4-yl)phenyl)pyrimidin-2-yl)amino)pyridin-3-yl)pyrrolidin-2-one]
30 | < 500 | CC(=O)N1CCC(c2cccc(-c3nc(Nc4cncc(N5CCCC5=O)c4)ncc3Cl)c2)CC1 [Compound 28, 1-(5-((4-(3-(1-acetylpiperidin-4-yl)phenyl)-5-chloropyrimidin-2-yl)amino)pyridin-3-yl)pyrrolidin-2-one]
31 | < 500 | O=C1CCCN1c1cncc(Nc2ncc(Cl)c(-c3cccc(C4CCCNC4)c3)n2)c1 (stereo not shown) [Compound 30, 1-(5-((5-chloro-4-(3-(piperidin-3-yl)phenyl)pyrimidin-2-yl)amino)pyridin-3-yl)pyrrolidin-2-one]
32 | < 500 | CN1CCN(c2cncc(Nc3ncc(Cl)c(-c4cccc(-c5ccccc5)c4)n3)c2)C1=O [Compound 32, 1-(5-((4-([1,1′-biphenyl]-3-yl)-5-chloropyrimidin-2-yl)amino)pyridin-3-yl)-3-methylimidazolidin-2-one]
33 | < 500 | CN1CCCC(c2cccc(-c3nc(Nc4cncc(N5CCCC5=O)c4)ncc3Cl)c2)C1 (stereo not shown) [Compound 33, 1-(5-((5-chloro-4-(3-(1-methylpiperidin-3-yl)phenyl)pyrimidin-2-yl)amino)pyridin-3-yl)pyrrolidin-2-one]
34 | < 500 | CC(=O)N1CCCC(c2cccc(-c3nc(Nc4cncc(N5CCCC5=O)c4)ncc3Cl)c2)C1 (stereo not shown) [Compound 34, 1-(5-((4-(3-(1-acetylpiperidin-3-yl)phenyl)-5-chloropyrimidin-2-yl)amino)pyridin-3-yl)pyrrolidin-2-one]
